Laboratory results published in patent US20250313563A1, “GLYCOGEN SYNTHASE KINASE 3 INHIBITORS AND USES THEREOF” (The Broad Institute, Inc., priority 2022, published 2025).
Read-outs that look alike come from different tables or passages of the source.

Assays:
[1] = target: GSK3α (GST-full length GSK3α) (Homo sapiens (Human), UniProt P49840); experiment: GSK3α TR-FRET kinase assay; type: biochemical
Method in brief: (§1)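 1 nM GST-GSK3α/β + cpd, 30 min preinc; add 200 nM biotin-pS645 GS(631-650) peptide + ATP (α 4 μM / β 2 μM, or 1 mM); 100 min RT, 50 mM Tris pH 7.5, 20 mM MgCl2, 1% DMSO; EDTA stop; SA-d2/Tb-pSer641 Ab 60 min; 665/615 ratio → IC50.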

[2] = target: GSK3b (GST-full length GSK3b) (Homo sapiens (Human), UniProt P49841); experiment: GSK3b TR-FRET kinase assay; type: biochemical
Method in brief: as §1

[3] = 1 nM GSK3α, 4 μM ATP, 30 minute preincubation, Table 16, read-out: GSK3-A TR-FRET BIOCHEMICAL (TR-FRET)
[4] = 1 nM GSK3b, 2 μM ATP, 30 minute preincubation, Table 16, read-out: GSK3-B TR-FRET BIOCHEMICAL (TR-FRET)
[5] = GSK3-A (TR-FRET 1 mM ATP), GMean, IC50, 1 mM ATP, geometric mean
[6] = GSK3-B (TR-FRET 1 mM ATP), GMean, IC50, 1 mM ATP, geometric mean
[7] = 1 nM GSK3α, 4 μM ATP, 30 minute preincubation, read-out: GSK3-A TR-FRET BIOCHEMICAL (TR-FRET), IC50
[8] = 1 nM GSK3b, 2 μM ATP, 30 minute preincubation, read-out: GSK3-B TR-FRET BIOCHEMICAL (TR-FRET), IC50
[9] = read-out: GSK3-A (TR-FRET 1 mM ATP), GMean, IC50, 1 mM ATP, geometric mean
[10] = read-out: GSK3-B (TR-FRET 1 mM ATP), GMean, IC50, 1 mM ATP, geometric mean
[11] = 1 nM GSK3α, 4 μM ATP, 30 minute preincubation, geometric mean, read-out: GSK3-A TR-FRET BIOCHEMICAL (TR-FRET), GMean, IC50
[12] = 1 nM GSK3b, 2 μM ATP, 30 minute preincubation, geometric mean, read-out: GSK3-B TR-FRET BIOCHEMICAL (TR-FRET), GMean, IC50

Chain of GSK3α (GST-full length GSK3α) (P49840 whole entry): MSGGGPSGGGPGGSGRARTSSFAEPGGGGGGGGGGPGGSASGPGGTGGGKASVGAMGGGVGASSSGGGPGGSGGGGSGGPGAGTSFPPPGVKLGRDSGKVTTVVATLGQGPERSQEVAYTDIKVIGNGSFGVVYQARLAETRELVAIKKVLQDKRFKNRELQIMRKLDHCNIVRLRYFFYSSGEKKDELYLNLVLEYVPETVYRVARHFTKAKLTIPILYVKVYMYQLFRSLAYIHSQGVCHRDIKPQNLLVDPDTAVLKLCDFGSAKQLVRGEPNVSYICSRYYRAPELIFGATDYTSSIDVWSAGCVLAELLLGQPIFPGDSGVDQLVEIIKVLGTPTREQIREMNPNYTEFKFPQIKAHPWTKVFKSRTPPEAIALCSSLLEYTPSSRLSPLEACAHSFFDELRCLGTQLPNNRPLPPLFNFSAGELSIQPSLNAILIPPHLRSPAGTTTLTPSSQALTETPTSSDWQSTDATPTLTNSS
Chain of GSK3b (GST-full length GSK3b) (P49841 whole entry): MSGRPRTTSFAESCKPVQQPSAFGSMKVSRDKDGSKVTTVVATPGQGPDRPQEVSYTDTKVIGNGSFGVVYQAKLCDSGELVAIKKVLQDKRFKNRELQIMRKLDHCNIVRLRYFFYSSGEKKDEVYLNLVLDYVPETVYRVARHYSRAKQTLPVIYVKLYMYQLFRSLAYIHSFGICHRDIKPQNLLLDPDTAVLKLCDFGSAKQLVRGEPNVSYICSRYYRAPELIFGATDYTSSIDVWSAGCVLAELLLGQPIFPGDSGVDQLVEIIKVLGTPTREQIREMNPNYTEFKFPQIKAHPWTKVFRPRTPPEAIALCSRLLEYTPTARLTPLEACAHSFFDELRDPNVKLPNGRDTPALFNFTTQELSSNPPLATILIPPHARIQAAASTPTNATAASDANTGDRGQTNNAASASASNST

Compound	IC50 [1, 3]	IC50 [2, 4]	IC50 [1, 11]	IC50 [2, 12]	other results
CCn1nc(C)cc1S(=O)(=O)N1CCC2(CC1)C1=C(CC(C)(C)CC1=O)Nc1n[nH]cc12 [Compound 947609]	≤ 100 nM	100 to 1000 nM			
CC1(C)CC(=O)C2=C(C1)Nc1n[nH]cc1C21CCN(S(=O)(=O)c2cnc3ccccn23)CC1 [Compound 947610]	≤ 100 nM	≤ 100 nM			
Cc1ncc(S(=O)(=O)N2CCC3(CC2)C2=C(CC(C)(C)CC2=O)Nc2n[nH]cc23)o1 [Compound 947611]	≤ 100 nM	≤ 100 nM			IC50 [1, 5]: 100 to 1000 nM; IC50 [2, 6]: 100 to 1000 nM
COc1ccc(S(=O)(=O)N2CCC3(CC2)C2=C(CC(C)(C)CC2=O)Nc2n[nH]cc23)cc1Cl [Compound 947612]	≤ 100 nM	≤ 100 nM			
CC1(C)CC(=O)C2=C(C1)Nc1n[nH]cc1C21CCN(S(=O)(=O)c2cccnc2)CC1 [Compound 947613]	≤ 100 nM	≤ 100 nM			IC50 [1, 5]: 100 to 1000 nM; IC50 [2, 6]: 1000 to 5000 nM
Cc1cnc2c(S(=O)(=O)N3CCC4(CC3)C3=C(CC(C)(C)CC3=O)Nc3n[nH]cc34)cccc2c1 [Compound 947614]					IC50 [1, 7]: ≤ 100 nM; IC50 [2, 8]: ≤ 100 nM
CC1(C)CC(=O)C2=C(C1)Nc1n[nH]cc1C21CCN(S(=O)(=O)c2cnn3ccccc23)CC1 [Compound 947615]	≤ 100 nM	≤ 100 nM			
Cc1cc(S(=O)(=O)N2CCC3(CC2)C2=C(CC(C)(C)CC2=O)Nc2n[nH]cc23)cc(C)n1 [Compound 947616]	≤ 100 nM	≤ 100 nM			IC50 [1, 5]: 100 to 1000 nM; IC50 [2, 6]: 1000 to 5000 nM
CC[C@]1(c2cccc(-c3cc(C)nn3C)c2)C2=C(Nc3n[nH]cc31)[C@H](F)C(C)(C)CC2=O [Compound 947656]	100 to 1000 nM	> 5000 nM			
CCC1(c2cccc(-c3c(C)cncc3C)c2)C2=C(CC(C)(C)CC2=O)Nc2n[nH]cc21 (centres unmarked) [Compound 947658]					IC50 [1, 9]: ≤ 100 nM; IC50 [2, 10]: 100 to 1000 nM
CC[C@]1(c2cccc(Cc3ncccc3C(F)(F)F)c2)C2=C(CC(C)(C)CC2=O)Nc2n[nH]cc21 [Compound 947665]	1000 to 5000 nM	> 5000 nM			
CCC1(c2cccc(N3CCCCC3)c2)C2=C(CC(C)(C)NC2=O)Nc2n[nH]c(C)c21 (centres unmarked) [Compound 947674]			≤ 100 nM	100 to 1000 nM	
CCC1(c2cccc(-c3ccnc4c3CCC4)c2)C2=C(CC(C)(C)NC2=O)Nc2n[nH]c(C)c21 (centres unmarked) [Compound 947675]			≤ 100 nM	100 to 1000 nM	
CCC1(c2cccc(-c3ccnc4c3CCC4)c2)C2=C(CC(C)(C)NC2=O)Nc2n[nH]cc21 (centres unmarked) [Compound 947676]			≤ 100 nM	100 to 1000 nM	
CCC1(c2cccc(-c3cn[nH]c3)c2)C2=C(CC(C)(C)NC2=O)Nc2n[nH]c(C(F)(F)F)c21 (centres unmarked) [Compound 947677]			≤ 100 nM	≤ 100 nM	
CC1CC(C(=O)N2CC3(C2)CC2(CO3)C3=C(CC(C)(C)CC3=O)Nc3n[nH]cc32)C1 (centres unmarked) [Compound 947732]					IC50 [1, 7]: 100 to 1000 nM; IC50 [2, 8]: 1000 to 5000 nM
CC1CC(C(=O)N2CC3(C2)CC2(CO3)C3=C(CC(C)(C)CC3=O)Nc3n[nH]cc32)C1 (centres unmarked) [Compound 947733]					IC50 [1, 7]: ≤ 100 nM; IC50 [2, 8]: ≤ 100 nM
CC1(C)CC(=O)C2=C(C1)Nc1n[nH]cc1[C@]21COC2(CN(C(=O)C3(F)CCC3)C2)C1 [Compound 947735]					IC50 [1, 7]: ≤ 100 nM; IC50 [2, 8]: ≤ 100 nM
CC1(C)CC(=O)C2=C(C1)Nc1n[nH]cc1C21COC2(CN(C(=O)C3(F)CCC3)C2)C1 (centres unmarked) [Compound 947736]					IC50 [1, 7]: ≤ 100 nM; IC50 [2, 8]: 100 to 1000 nM
CCC1(c2cccc(C(F)(F)F)c2)C2=C(CCN(c3ccc(F)cc3)C2=O)Nc2n[nH]cc21 (centres unmarked) [Compound 947748]			≤ 100 nM	100 to 1000 nM	
CC1(C)CC(=O)C2=C(C1)Nc1n[nH]cc1C21CN(c2cccnc2)C1 [Compound 947813]					IC50 ([1]; 1 nM GSK3α, 4 μM ATP, 30 minute preincubation, Table 16, read-out: GSK3-A TR-FRET BIOCHEMICAL (TR-FRET), IC50): 1000 to 5000 nM; IC50 ([2]; 1 nM GSK3b, 2 μM ATP, 30 minute preincubation, Table 16, read-out: GSK3-B TR-FRET BIOCHEMICAL (TR-FRET), IC50): 1000 to 5000 nM

Continued, in another order:

IC50 [1, 3]	IC50 [2, 4]	IC50 [1, 11]	IC50 [2, 12]	Compound	other results
		≤ 100 nM	100 to 1000 nM	CCC1(c2cccc(-c3ccnc(C)c3)c2)C2=C(CC(C)(C)NC2=O)Nc2n[nH]c(C)c21 (centres unmarked) [Compound 947798]	
		≤ 100 nM	≤ 100 nM	CCC1(c2cccc(S(C)(=O)=O)c2)C2=C(CC(C)(C)NC2=O)Nc2n[nH]c(C(F)(F)F)c21 (centres unmarked) [Compound 947799]	
		≤ 100 nM	≤ 100 nM	CCC1(c2cccc(S(=O)(=O)C(C)C)c2)C2=C(CC(C)(C)NC2=O)Nc2n[nH]c(C(F)(F)F)c21 (centres unmarked) [Compound 947800]	
		≤ 100 nM	≤ 100 nM	CCC1(c2cccc(-c3cnn4c3CCCC4)c2)C2=C(CC(C)(C)NC2=O)Nc2n[nH]c(C(F)(F)F)c21 (centres unmarked) [Compound 947801]	
≤ 100 nM	≤ 100 nM			CCC1(c2cccc(-c3cnnn3C)c2)C2=C(CC(C)(C)CC2=O)Nc2n[nH]cc21 (centres unmarked) [Compound 947802]	
		≤ 100 nM	≤ 100 nM	CC[C@@]1(c2cccc(S(=O)(=O)C3CC3)c2)C2=C(CC(C)(C)NC2=O)Nc2n[nH]cc21 [Compound 947803]	
		≤ 100 nM	100 to 1000 nM	CCC1(c2cccc(-c3cc(C)ncc3F)c2)C2=C(CC(C)(C)NC2=O)Nc2n[nH]cc21 (centres unmarked) [Compound 947804]	
		100 to 1000 nM	1000 to 5000 nM	CC[C@]1(c2cccc(-c3ccncc3F)c2)C2=C(CC(C)(C)NC2=O)Nc2n[nH]c(C)c21 [Compound 947805]	
		≤ 100 nM	≤ 100 nM	CCC1(c2cccc(-c3cncn3C)c2)C2=C(CC(C)(C)NC2=O)Nc2n[nH]cc21 (centres unmarked) [Compound 947806]	
		≤ 100 nM	100 to 1000 nM	CC[C@]1(c2cccc(-c3cnn(C)c3C)c2)C2=C(CC(C)(C)NC2=O)Nc2n[nH]c(C(F)(F)F)c21 [Compound 947807]	
≤ 100 nM	≤ 100 nM			CCC1(c2cccc(Oc3ncccn3)c2)C2=C(CC(C)(C)CC2=O)Nc2n[nH]cc21 (centres unmarked) [Compound 947808]	IC50 [1, 9]: ≤ 100 nM; IC50 [2, 10]: 100 to 1000 nM
		100 to 1000 nM	1000 to 5000 nM	CC[C@]1(c2cccc(-c3cnn4c3CCCC4)c2)C2=C(CC(C)(C)NC2=O)Nc2n[nH]c(C)c21 [Compound 947809]	
≤ 100 nM	100 to 1000 nM			CC[C@]1(c2cccc(-c3ccnc(CCO)c3)c2)C2=C(CC(C)(C)CC2=O)Nc2n[nH]cc21 [Compound 947810]	
		≤ 100 nM	≤ 100 nM	CC[C@]1(c2cccc(-c3ccncc3C)c2)C2=C(CC(C)(C)NC2=O)Nc2[nH]nc(C(F)(F)F)c21 [Compound 947812]	
		≤ 100 nM	≤ 100 nM	CCC1(c2cccc(-c3ccncc3C)c2)C2=C(CC(C)(C)NC2=O)Nc2n[nH]c(C(F)(F)F)c21 (centres unmarked) [Compound 947814]	IC50 [1, 9]: ≤ 100 nM; IC50 [2, 10]: ≤ 100 nM
1000 to 5000 nM	> 5000 nM			CC[C@@]1(c2cccc(-c3ccnc(CCO)c3)c2)C2=C(CC(C)(C)CC2=O)Nc2n[nH]cc21 [Compound 947816]	
		≤ 100 nM	≤ 100 nM	CC[C@@]1(c2cccc(-c3cnn4c3CCCC4)c2)C2=C(CC(C)(C)NC2=O)Nc2n[nH]c(C)c21 [Compound 947817]	
100 to 1000 nM	> 5000 nM			CCC1(c2cccc(Oc3ncccn3)c2)C2=C(CC(C)(C)CC2=O)Nc2n[nH]cc21 (centres unmarked) [Compound 947818]	
		100 to 1000 nM	100 to 1000 nM	CC[C@]1(c2cccc(-c3cncn3C)c2)C2=C(CC(C)(C)NC2=O)Nc2n[nH]cc21 [Compound 947820]	
		≤ 100 nM	≤ 100 nM	CC[C@@]1(c2cccc(-c3ccncc3F)c2)C2=C(CC(C)(C)NC2=O)Nc2n[nH]c(C)c21 [Compound 947821]	
		100 to 1000 nM	> 5000 nM	CC[C@]1(c2cccc(-c3cc(C)ncc3F)c2)C2=C(CC(C)(C)NC2=O)Nc2n[nH]cc21 [Compound 947822]	
100 to 1000 nM	1000 to 5000 nM			CCC1(c2cccc(-c3cnnn3C)c2)C2=C(CC(C)(C)CC2=O)Nc2n[nH]cc21 (centres unmarked) [Compound 947824]	
		≤ 100 nM	≤ 100 nM	CC[C@]1(c2cccc(N(C)c3ncccn3)c2)C2=C(CC(C)(C)NC2=O)Nc2n[nH]cc21 [Compound 947826]	
		≤ 100 nM	100 to 1000 nM	CC1(C)CC2=C(C(=O)N1)C1(CCN(S(=O)(=O)c3cnn(C(C)(C)C)c3)CC1)c1c[nH]nc1N2 [Compound 947835]	IC50 [1, 7]: ≤ 100 nM; IC50 [2, 8]: 100 to 1000 nM
		≤ 100 nM	100 to 1000 nM	CCn1ccc(S(=O)(=O)N2CCC3(CC2)C2=C(CC(C)(C)NC2=O)Nc2n[nH]cc23)n1 [Compound 947836]	IC50 [1, 7]: ≤ 100 nM; IC50 [2, 8]: 100 to 1000 nM
		≤ 100 nM	≤ 100 nM	CCc1ncc(S(=O)(=O)N2CCC3(CC2)C2=C(CC(C)(C)NC2=O)Nc2n[nH]cc23)s1 [Compound 947837]	IC50 [1, 7]: ≤ 100 nM; IC50 [2, 8]: ≤ 100 nM
